Here are results for 20 molecules from US20260070902A1, “SULFONYL DERIVATIVES AS CCR6 INHIBITORS” (Hoffmann-La Roche Inc., priority 2022, published 2026).

In this assay the target is T1, human CCR6 (Homo sapiens, UniProt P51684).
T1 sequence (P51684 1-374): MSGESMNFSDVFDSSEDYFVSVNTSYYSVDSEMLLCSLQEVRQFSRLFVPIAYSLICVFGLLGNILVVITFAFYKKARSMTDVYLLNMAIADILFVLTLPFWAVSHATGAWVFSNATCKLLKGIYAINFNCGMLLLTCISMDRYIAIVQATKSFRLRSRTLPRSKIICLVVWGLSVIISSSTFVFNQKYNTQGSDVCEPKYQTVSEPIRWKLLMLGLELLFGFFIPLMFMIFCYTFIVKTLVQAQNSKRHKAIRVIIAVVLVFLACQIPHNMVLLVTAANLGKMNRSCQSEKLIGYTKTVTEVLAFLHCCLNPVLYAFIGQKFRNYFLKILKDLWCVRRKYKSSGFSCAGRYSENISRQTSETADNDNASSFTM
The assay is described as follows: Human CCR6-CRE reporter assay. It counts as cell-based. Further details: The second construct contained the open reading frame of human CCR6 in the pUNO1 backbone; host or cells: 293FT cells. Particulars: relative -Log IC50; 293FT cells transfected with human CCR6 and CRE-luciferase reporter; 6 μM Forskolin, 6 nM CCL20; 5 h. The protocol:
Human CCR6-CRE Reporter Assay
293FT cells were transfected with 2 constructs using TransIT-293 (Mirus). The first construct (pGL4.29, Promega) expressed the luciferase reporter gene luc2P in response to the binding of cAMP-induced CREB to the CREelement in its promoter. The second construct contained the open reading frame of human CCR6 in the pUNO1 backbone under the control of an enhanced CMV promoter (InVivoGen). 48 h after transfection, cells were harvested and diluted to 750,000 cells/ml in culture medium (DMEM, 10% FBS, 1× pen/strep (Gibco 15140)). Compounds were 2.5-fold serially diluted in DMSO. Further dilutions were made in assay medium (DMEM, 10% FBS, 1× pen/strep, 6 μM Forskolin, 6 nM CCL20). 4 μl of the compound solution was added to a white MW384 plate, followed by 20 μl of the cell suspension. Final DMSO concentration in the assay was 0.1%. The MW384 plate was placed in an incubator at 37° C., 5% CO2 for 5 h. Luciferase activity was determined by addition of 24 μl of a 2.5× diluted BriteLite luciferase solution (Perkin Elmer), followed by luminescence measurement using a VICTOR Plate reader (Perkin Elmer). […] The relative −Log IC50 was determined with GraphPad Prism 9 using a four-parameter dose-response model.
In general terms: Reporter assays use an easily measured gene product as a stand-in for the process of interest.
The IC50 is the midpoint of a concentration-inhibition curve. Low values mean greater potency, high ones weaker potency. Regarding `Cc1n[nH]c2ccc(-c3ccc(S(=O)(=O)[C@H]4CC[C@@H](Nc5ccc(S(F)(F)(F)(F)F)cc5)CC4)cc3)cc12` [Example 5, 4-(pentafluoro-λ^6-sulfanyl)-N-[cis-4-[4-(3-methyl-2H-indazol-5-yl)benzenesulfonyl]cyclohexyl]aniline], inhibition was half-maximal at 501 nM (IC50).
The molecule `N#Cc1c[nH]c2ccc(-c3ccc(S(=O)(=O)[C@H]4CC[C@@H](Nc5ccc(S(F)(F)(F)(F)F)cc5)CC4)cc3)cc12` [Example 8, 5-(4-{[cis-4-{[4-(pentafluoro-λ^6-sulfanyl)phenyl]Amino}cyclohexyl]sulfonyl}phenyl)-1H-indole-3-carbonitrile] had a concentration for half-maximal inhibition (IC50) of 1260 nM.
Under `N#Cc1cnc2ccc(-c3ccc(S(=O)(=O)[C@H]4CC[C@@H](Nc5ccc(S(F)(F)(F)(F)F)cc5)CC4)cc3)cn12` [Example 17, 6-(4-{[cis-4-{[4-(pentafluoro-λ^6-sulfanyl)phenyl]Amino}cyclohexyl]sulfonyl}phenyl)imidazo[1,2-a]pyridine-3-carbonitrile] stands 794 nM.
Under `O=S(=O)(c1ccc(-c2ccc3nnc(C4CCCC4)n3c2)cc1)N1CCC(Nc2ccc(S(F)(F)(F)(F)F)cc2)CC1` [Example 31, 1-(4-{3-cyclopentyl-[1,2,4]triazolo[4,3-a]pyridin-6-yl}benzenesulfonyl)-N-[4-(pentafluoro-λ^6-sulfanyl)phenyl]piperidin-4-amine] stands 63.1 nM; under `CN(C)C(=O)c1ccc(-c2ccc(S(=O)(=O)[C@H]3CC[C@@H](Nc4ccc(S(F)(F)(F)(F)F)cc4)CC3)cc2)nc1` [Example 45, N,N-dimethyl-6-(4-{[cis-4-{[4-(pentafluoro-λ^6-sulfanyl)phenyl]Amino}cyclohexyl]sulfonyl}phenyl)pyridine-3-carboxamide], 1580 nM; under `CN(C)C(=O)c1ccc(-c2ccc(S(=O)(=O)[C@H]3CC[C@H](Nc4ccc(S(F)(F)(F)(F)F)cc4)CC3)cc2)nc1` [Example 46, N,N-dimethyl-6-(4-{[trans-4-{[4-(pentafluoro-λ^6-sulfanyl)phenyl]Amino}cyclohexyl]sulfonyl}phenyl)pyridine-3-carboxamide], 251 nM.
Under `O=c1cc(-c2ccc(S(=O)(=O)[C@H]3CC[C@H](Nc4ccc(S(F)(F)(F)(F)F)cc4)CC3)cc2)cc[nH]1` [Example 52, 4-(4-{[trans-4-{[4-(pentafluoro-λ^6-sulfanyl)phenyl]Amino}cyclohexyl]sulfonyl}phenyl)-1,2-dihydropyridin-2-one] stands 39.8 nM.
`O=C1Cc2ccc(-c3ccc(S(=O)(=O)[C@H]4CC[C@H](Nc5ccc(S(F)(F)(F)(F)F)cc5)CC4)cc3)cc2CN1` [Example 53, 7-(4-{[trans-4-{[4-(pentafluoro-λ^6-sulfanyl)phenyl]Amino}cyclohexyl]sulfonyl}phenyl)-1,2,3,4-tetrahydroisoquinolin-3-one] gave an IC50 of 79.4 nM.
Under `O=C1Cc2cc(-c3ccc(S(=O)(=O)[C@H]4CC[C@H](Nc5ccc(S(F)(F)(F)(F)F)cc5)CC4)cc3)ccc2CN1` [Example 54, 6-(4-{[trans-4-{[4-(pentafluoro-λ^6-sulfanyl)phenyl]Amino}cyclohexyl]sulfonyl}phenyl)-1,2,3,4-tetrahydroisoquinolin-3-one] stands 50.1 nM; under `O=c1[nH]cnn2cc(-c3ccc(S(=O)(=O)[C@H]4CC[C@H](Nc5ccc(S(F)(F)(F)(F)F)cc5)CC4)cc3)cc12` [Example 55, 6-(4-{[trans-4-{[4-(pentafluoro-λ^6-sulfanyl)phenyl]Amino}cyclohexyl]sulfonyl}phenyl)-3H,4H-pyrrolo[2,1-f][1,2,4]triazin-4-one], 31.6 nM.
In the case of `CP(C)(=O)c1ccc(-c2ccc(S(=O)(=O)[C@H]3CC[C@H](Nc4ccc(S(F)(F)(F)(F)F)cc4)CC3)cc2)cc1` [Example 57, 4-(pentafluoro-λ^6-sulfanyl)-N-[trans-4-{[4′-(dimethylphosphoryl)-[1,1′-biphenyl]-4-yl]sulfonyl}cyclohexyl]aniline] it was 200 nM; in that of `NC(=O)c1ccc(-c2ccc(S(=O)(=O)[C@H]3CC[C@H](Nc4ccc(S(F)(F)(F)(F)F)cc4)CC3)cc2)nn1` [Example 62, 6-(4-{[trans-4-{[4-(pentafluoro-λ^6-sulfanyl)phenyl]Amino}cyclohexyl]sulfonyl}phenyl)pyridazine-3-carboxamide], 398 nM.
Under `Cc1cc(-c2ccc(S(=O)(=O)[C@H]3CC[C@H](Nc4ccc(S(F)(F)(F)(F)F)cc4)CC3)cc2)cn2c(C(C)C)cnc12` [Example 64, 4-(pentafluoro-λ^6-sulfanyl)-N-[trans-4-{4-[8-methyl-3-(propan-2-yl)imidazo[1,2-a]pyridin-6-yl]benzenesulfonyl}cyclohexyl]aniline] stands 50.1 nM; under `O=C1Nc2ccc(-c3ccc(S(=O)(=O)[C@H]4CC[C@H](Nc5ccc(S(F)(F)(F)(F)F)cc5)CC4)cc3)cc2C12CC2` [Example 65, 5′-(4-{[trans-4-{[4-(pentafluoro-λ^6-sulfanyl)phenyl]amino}cyclohexyl]sulfonyl}phenyl)-1′,2′-dihydrospiro[cyclopropane-1,3′-indol]-2′-one], 39.8 nM; under `Cc1cnc2ccc(-c3ccc(S(=O)(=O)N4CCC(Nc5ccc(S(F)(F)(F)(F)F)cc5)CC4)c(F)c3)cn12` [Example 67, 1-(2-fluoro-4-{3-methylimidazo[1,2-a]pyridin-6-yl}benzenesulfonyl)-N-[4-(pentafluoro-λ^6-sulfanyl)phenyl]piperidin-4-amine], 631 nM.
Take `Cc1cnc2ccc(-c3ccc(S(=O)(=O)N4CCC(Nc5ccc(S(F)(F)(F)(F)F)cc5)CC4)cc3F)cn12` [Example 68, 1-(3-fluoro-4-{3-methylimidazo[1,2-a]pyridin-6-yl}benzenesulfonyl)-N-[4-(pentafluoro-λ^6-sulfanyl)phenyl]piperidin-4-amine]: inhibition was half-maximal at 1000 nM (IC50). This IC50 is about 1.6-fold higher than that of the molecule before.
Under `Cc1cnc2ccc(-c3ccc(S(=O)(=O)N4CCC(Nc5ccc(S(F)(F)(F)(F)F)cc5)CC4)nc3)cn12` [Example 70, 1-[(5-{3-methylimidazo[1,2-a]pyridin-6-yl}pyridin-2-yl)sulfonyl]-N-[4-(pentafluoro-λ^6-sulfanyl)phenyl]piperidin-4-amine] stands 1260 nM; under `N#Cc1cnc2ccc(-c3ccc(S(=O)(=O)N4CCC(Nc5ccc(S(F)(F)(F)(F)F)cc5)CC4)cc3F)cn12` [Example 71, 6-{2-fluoro-4-[(4-{[4-(pentafluoro-λ^6-sulfanyl)phenyl]Amino}piperidin-1-yl)sulfonyl]phenyl}imidazo[1,2-a]pyridine-3-carbonitrile], 1000 nM; under `O=S(=O)(c1ccc(-c2ccc3nccn3c2)c(F)c1)N1CCC(Nc2ccc(S(F)(F)(F)(F)F)cc2)CC1` [Example 72, 1-(3-fluoro-4-{imidazo[1,2-a]pyridin-6-yl}benzenesulfonyl)-N-[4-(pentafluoro-λ^6-sulfanyl)phenyl]piperidin-4-amine], 1580 nM.
The molecule `O=S(=O)(c1ccc(-c2ccc3nccn3c2)cn1)N1CCC(Nc2ccc(S(F)(F)(F)(F)F)cc2)CC1` [Example 75, 1-[(5-{imidazo[1,2-a]pyridin-6-yl}pyridin-2-yl)sulfonyl]-N-[4-(pentafluoro-λ^6-sulfanyl)phenyl]piperidin-4-amine] had an IC50 of 1000 nM.
